Measured values as given in ChEMBL document CHEMBL1201862, “PubChem BioAssay data set” (2004).
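In this assay, cells in 96-well plates receive the compound at five concentrations for 48 hours. Endpoints are linearly interpolated between the surrounding concentrations. At the GI50, growth is halved.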 Active and inactive are the calls of the source. Rule as the data show it: active = GI50 up to about 1.1 µM and inactive = higher.

How the values were obtained:
Assay in all cases: NCI-60 cell line screen, 48 h
[1] = tested on: HCC 2998
[2] = tested on: SK-OV-3
[3] = tested on: HOP-92
[4] = tested on: NCI-H23
[5] = tested on: RXF 631
[6] = tested on: OVCAR-4
[7] = tested on: DLD-1
[8] = tested on: HCT-116
[9] = tested on: 786-0
[10] = tested on: A498
[11] = tested on: CAKI-1
[12] = tested on: HT-29
[13] = tested on: RXF 393
[14] = tested on: KM-20L2
[15] = tested on: ACHN
[16] = tested on: M14
[17] = tested on: KM12
[18] = tested on: OVCAR-5
[19] = tested on: SK-MEL-28
[20] = tested on: UACC-257
[21] = tested on: COLO 205
[22] = tested on: SF-295
[23] = tested on: SNB-75
[24] = tested on: M19-MEL
[25] = tested on: LOX IMVI
[26] = tested on: U-251
[27] = tested on: SF-539
[28] = tested on: IGROV-1
[29] = tested on: Malme-3M
[30] = tested on: RPMI-8226
[31] = tested on: K562
[32] = tested on: HOP-62
[33] = tested on: OVCAR-8
[34] = tested on: UO-31
[35] = tested on: TK-10
[36] = tested on: OVCAR-3
[37] = tested on: SN12C
[38] = tested on: SW-620
[39] = tested on: HL-60
[40] = tested on: HCT-15
[41] = tested on: MOLT-4
[42] = tested on: EKVX
[43] = tested on: NCI-H460
[44] = tested on: NCI-H522
[45] = tested on: NCI-H226
[46] = tested on: A549
[47] = tested on: DMS-273
[48] = tested on: SF-268
[49] = tested on: LXFL 529
[50] = tested on: XF498
[51] = tested on: SNB-78
[52] = tested on: UACC-62
[53] = tested on: CCRF-CEM

Q: What does the source list for `COc1cc2c(c(OC)c1OC)-c1ccc(SC)c(=O)cc1[C@@H](NC(=O)c1ccc(OC(C)=O)cc1)CC2`?
A: GI50 [1]: 21.8 nM (active); GI50 [2]: 24.1 nM (active); GI50 [3]: 2.57 nM (active); GI50 [4]: 21.2 nM (active); GI50 [5]: 27.5 nM (active); GI50 [6]: 67.5 nM (active); GI50 [7]: 32.3 nM (active); GI50 [8]: 22.9 nM (active); GI50 [9]: 40.9 nM (active); GI50 [10]: 22.7 nM (active); GI50 [11]: 33.9 µM (inactive); GI50 [12]: 24.8 nM (active); GI50 [13]: 18 nM (active); GI50 [14]: 18.9 nM (active); GI50 [15]: 34.2 nM (active); GI50 [16]: 21.5 nM (active); GI50 [17]: 19.8 nM (active); GI50 [18]: 24.7 µM (inactive); GI50 [19]: 55.3 nM (active); GI50 [20]: 34.9 nM (active); GI50 [21]: 19.4 nM (active); GI50 [22]: 21.7 nM (active); GI50 [23]: 33.2 nM (active); GI50 [24]: 26.5 nM (active); GI50 [25]: 13.7 nM (active); GI50 [26]: 22.7 nM (active); GI50 [27]: 16.9 nM (active); GI50 [28]: 31.9 nM (active); GI50 [29]: 23.8 nM (active); GI50 [30]: 32.7 nM (active); GI50 [31]: 30.1 nM (active); GI50 [32]: 41.9 nM (active); GI50 [33]: 31.3 nM (active); GI50 [34]: 433 nM (active); GI50 [35]: 45.4 nM (active); GI50 [36]: 15 nM (active); GI50 [37]: 32.4 nM (active); GI50 [38]: 29 nM (active); GI50 [39]: 33.8 nM (active); GI50 [40]: 22.9 nM; GI50 [41]: 40.9 nM (active); GI50 [42]: 13.9 nM (active); GI50 [43]: 32.6 nM (active); GI50 [44]: 10 nM (active); GI50 [45]: 23.1 nM (active); GI50 [46]: 10 nM (active); GI50 [47]: 10 nM (active); GI50 [48]: 30.6 nM (active); GI50 [49]: 15.8 nM (active); GI50 [50]: 16.9 nM (active); GI50 [51]: 4.51 nM (active); GI50 [52]: 31.3 nM (active); GI50 [53]: 32.9 nM (active)
